Assay results published in ChEMBL document CHEMBL5131387, “Discovery and computational studies of 2-phenyl-benzoxazole acetamide derivatives as promising P2Y14R antagonists with anti-gout potential” (Eur J Med Chem, 2022).
The source made the active and inactive calls. No cut-off for these calls is given here.

Columns and labels:
[1] = target: T1, P2Y purinoceptor 14 (Homo sapiens) (UniProt Q15391); test: Antagonist activity at human P2Y14R expressed in human HEK293 cells assessed as inhibition of cAMP level at 100 nM incubated for 30 mins by cAMP-glo assay relative to control; type: functional, cell-based
T1 sequence (whole entry): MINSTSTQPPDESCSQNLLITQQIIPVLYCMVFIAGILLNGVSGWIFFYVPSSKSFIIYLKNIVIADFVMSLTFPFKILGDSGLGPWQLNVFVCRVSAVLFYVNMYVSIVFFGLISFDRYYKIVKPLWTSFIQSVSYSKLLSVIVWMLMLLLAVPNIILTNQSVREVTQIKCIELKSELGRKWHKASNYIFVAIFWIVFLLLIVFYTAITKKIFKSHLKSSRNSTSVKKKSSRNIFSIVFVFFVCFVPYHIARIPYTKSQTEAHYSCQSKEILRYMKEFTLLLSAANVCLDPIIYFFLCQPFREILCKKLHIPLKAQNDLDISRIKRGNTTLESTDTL

P2Y purinoceptor 14 = target: T2, P2Y purinoceptor 14 (Homo sapiens, UniProt Q15391); test: Antagonist activity at human P2Y14R expressed in human HEK293 cells assessed as inhibition of cAMP level incubated for 30 mins by cAMP-glo assay; type: functional, cell-based
T2 sequence (Q15391 whole entry): T1 sequence (whole entry)

BMDM [2] = test: Antiinflammatory activity against MSU-induced C57BL/6 mouse BMDM cells assessed as inhibition of secretion of IL-1beta protein expression in supernatant at 10 uM measured after 7 days by western blot analysis; type: functional, cell-based
BMDM [3] = test: Antiinflammatory activity against MSU-induced C57BL/6 mouse BMDM cells assessed as inhibition of MSU-induced ASC upregulation at 10 uM by measuring fluorescence intensity by immunofluorescence assay; type: functional, cell-based
BMDM [4] = test: Antiinflammatory activity against MSU-induced C57BL/6 mouse BMDM cells assessed as inhibition of MSU-induced NLRP3 upregulation at 10 uM by measuring fluorescence intensity by immunofluorescence assay; type: functional, cell-based
BMDM [5] = test: Antiinflammatory activity against MSU-induced C57BL/6 mouse BMDM cells assessed as inhibition of MSU-induced caspase-1 upregulation at 10 uM measured after 7 days by western blot analysis; type: functional, cell-based
BMDM [6] = test: Antiinflammatory activity against MSU-induced C57BL/6 mouse BMDM cells assessed as inhibition of MSU-induced GSDMD-NT upregulation at 10 uM measured after 7 days by western blot analysis; type: functional, cell-based
Mus musculus [7] = species: Mus musculus; test: Anti-arthritis activity against MSU-induced acute gout arthritis ICR mouse model assessed as inhibition of NLRP3 inflammasome activation in foot tissue at 10 uM by microscopic analysis; type: functional, organism-based
BMDM [8] = test: Antiinflammatory activity against MSU-induced C57BL/6 mouse BMDM cells assessed as inhibition of MSU-induced ASC upregulation at 10 uM measured after 7 days by western blot analysis; type: functional, cell-based
Mus musculus [9] = species: Mus musculus; test: Anti-arthritis activity against MSU-induced acute gout arthritis ICR mouse model assessed as reduction in paw swelling at 10 uM measured at 6 to 24 hrs; type: functional, organism-based
Mus musculus [10] = test: Anti-inflammatory activity against air pouch inflammation ICR mouse model assessed as decrease in MSU-induced pyroptosis of air pouch macrophages by measuring viable cells at 10 uM injected subcutaneously after 24 hrs of MSU stimulation and measured after 24 hrs by caspase-1/PI staining based flow cytometry (reference value: 45.5 %); type: functional; conditions: route sc
BMDM [11] = test: Antiinflammatory activity against MSU-induced C57BL/6 mouse BMDM cells assessed as inhibition of MSU-induced NLRP3 upregulation at 10 uM measured after 7 days by western blot analysis; type: functional, cell-based
Mus musculus [12] = test: Anti-inflammatory activity against air pouch inflammation ICR mouse model assessed as decrease in MSU-induced pyroptosis of air pouch macrophages by measuring late cells at 10 uM injected subcutaneously after 24 hrs of MSU stimulation and measured after 24 hrs by caspase-1/PI staining based flow cytometry (Rvb =14.7 %); type: functional; parameters: scale not given: the % may be the effect or the level left; conditions: route sc
Mus musculus [13] = test: Anti-inflammatory activity against air pouch inflammation ICR mouse model assessed as decrease in MSU-induced pyroptosis of air pouch macrophages by measuring necrotic cells at 10 uM injected subcutaneously after 24 hrs of MSU stimulation and measured after 24 hrs by caspase-1/PI staining based flow cytometry (Rvb =26.2 %); type: functional; parameters: scale not given: the % may be the effect or the level left; conditions: route sc
Mus musculus [14] = test: Anti-inflammatory activity against air pouch inflammation ICR mouse model assessed as decrease in MSU-induced pyroptosis of air pouch macrophages by measuring early cells at 10 uM injected subcutaneously after 24 hrs of MSU stimulation and measured after 24 hrs by caspase-1/PI staining based flow cytometry (reference value: 13.6 %); type: functional; parameters: scale not given: the % may be the effect or the level left; conditions: route sc
Mus musculus [15] = species: Mus musculus; test: Anti-arthritis activity against MSU-induced acute gout arthritis ICR mouse model assessed as reversal of GSDMD-NT upregulation in foot tissue at 10 uM by western blot analysis; type: functional, organism-based

SMILES	inhibition ([1]; filed as antagonist)	IC50 (P2Y purinoceptor 14)	also measured
O=C(Cc1ccc(C(F)(F)F)cc1)Nc1cccc(-c2nc3ccccc3o2)c1	83.6%	11.5 nM	–
Cc1ccc2oc(-c3cccc(NC(=O)Cc4ccccc4Br)c3)nc2c1	42.1%	–	–
CC(C)(C)c1ccc(CC(=O)Nc2cccc(-c3nc4ccccc4o3)c2)cc1	68%	–	–
Cc1cccc(CC(=O)Nc2cc(C)cc(-c3nc4cc(Cl)ccc4o3)c2)c1	86.9%	9.7 nM	–
O=C(Cc1ccccc1Br)Nc1cccc(-c2nc3cc(Cl)ccc3o2)c1	72.6%	32.9 nM	–
O=C(Cc1cccc(OC(F)(F)F)c1)Nc1cccc(-c2nc3cc(Cl)ccc3o2)c1	84%	12.6 nM	–
O=C(O)c1cc(-c2ccc(C3CCNCC3)cc2)c2ccc(-c3ccc(C(F)(F)F)cc3)cc2c1 [PPTN]	–	–	Activity (BMDM [2]): Active; Activity (BMDM [3]): Active; Activity (BMDM [4]): Active; Activity (BMDM [5]): Active; Activity (BMDM [6]): Active; Activity (Mus musculus [7]): Active; Activity (BMDM [8]): Active; Activity (Mus musculus [9]): Active; Activity (Mus musculus [10]): 60%; Activity (BMDM [11]): Active; Activity (Mus musculus [12]): 6.81%; Activity (Mus musculus [13]): 18.8%; Activity (Mus musculus [14]): 15.4%; Activity (Mus musculus [15]): Active
O=C(Cc1ccccc1Cl)Nc1cccc(-c2nc3ccccc3o2)c1	67.2%	–	–
COc1cccc(CC(=O)Nc2cccc(-c3nc4cc(Cl)ccc4o3)c2)c1	82%	23.8 nM	–
COc1ccc(CC(=O)Nc2cccc(-c3nc4cc(Cl)ccc4o3)c2)cc1	89%	9.2 nM	–
Cc1ccc2oc(-c3cccc(NC(=O)Cc4cccc(C(F)(F)F)c4)c3)nc2c1	62.2%	–	–
Cc1ccc(CC(=O)Nc2cccc(-c3nc4cc(Cl)ccc4o3)c2)cc1	84.6%	6.7 nM	–
O=C(Cc1ccc(OC(F)(F)F)cc1)Nc1cccc(-c2nc3cc(Cl)ccc3o2)c1	88%	9.8 nM	–
Cc1ccc2oc(-c3cccc(NC(=O)Cc4ccc(C(F)(F)F)cc4)c3)nc2c1	71.3%	35.1 nM	–
O=C(Cc1ccc(Br)cc1)Nc1ccc(-c2cc3ccccc3o2)cc1	47%	–	–
Cc1ccc(CC(=O)Nc2cccc(-c3nc4ccccc4o3)c2)cc1	85.6%	8.7 nM	–
O=C(Cc1cccs1)Nc1ccc(-c2cc3ccccc3o2)cc1	45%	–	–
CCCCOc1ccc(CC(=O)Nc2cccc(-c3nc4ccccc4o3)c2)cc1	86%	12.3 nM	–
O=C(Cc1ccc2c(c1)OCO2)Nc1cccc(-c2nc3cc(Cl)ccc3o2)c1	46.7%	–	–
COc1ccc(CC(=O)Nc2cccc(-c3nc4ccccc4o3)c2)cc1	98%	2 nM	Activity (BMDM [2]): Active; Activity (BMDM [3]): Active; Activity (BMDM [4]): Active; Activity (BMDM [5]): Active; Activity (BMDM [6]): Active; Activity (Mus musculus [7]): Active; Activity (BMDM [8]): Active; Activity (Mus musculus [9]): Active; Activity (Mus musculus [10]): 68.5%; Activity (BMDM [11]): Active; Activity (Mus musculus [12]): 7.81%; Activity (Mus musculus [13]): 15%; Activity (Mus musculus [14]): 8.73%; Activity (Mus musculus [15]): Active
COc1ccccc1CC(=O)Nc1cccc(-c2nc3ccccc3o2)c1	83%	12.2 nM	–
COc1ccc(CC(=O)Nc2ccc(-c3cc4ccccc4o3)cc2)cc1	75%	–	–
CC(C)(C)c1ccc(CC(=O)Nc2ccc(-c3cc4ccccc4o3)cc2)cc1	–	–	inhibition [1]: 33%
COc1cccc(CC(=O)Nc2cccc(-c3nc4ccccc4o3)c2)c1	83%	24.3 nM	–

SMILES	inhibition ([1]; filed as antagonist)	IC50 (P2Y purinoceptor 14)	also measured
O=C(Cc1ccccc1Cl)Nc1cccc(-c2nc3cc(Cl)ccc3o2)c1	68.6%	–	–
Cc1ccc2oc(-c3cccc(NC(=O)Cc4cccc(Cl)c4)c3)nc2c1	44.1%	–	–
Cc1ccccc1CC(=O)Nc1cccc(-c2nc3ccccc3o2)c1	73.3%	9.3 nM	–
COc1ccccc1CC(=O)Nc1cccc(-c2nc3cc(Cl)ccc3o2)c1	81%	17.1 nM	–
O=C(Cc1ccc(C(F)(F)F)cc1)Nc1cccc(-c2nc3cc(Cl)ccc3o2)c1	85.5%	6.1 nM	–
O=C(Cc1cccc(Cl)c1)Nc1cccc(-c2nc3cc(Cl)ccc3o2)c1	74.6%	13.4 nM	–
Cc1cccc(CC(=O)Nc2cccc(-c3nc4ccccc4o3)c2)c1	78.5%	21.8 nM	–
Cc1ccc2oc(-c3cccc(NC(=O)Cc4ccc5c(c4)OCO5)c3)nc2c1	55.1%	–	–
O=C(Cc1cccc(C(F)(F)F)c1)Nc1cccc(-c2nc3cc(Cl)ccc3o2)c1	79.7%	27.5 nM	–
CC(C)(C)c1ccc(CC(=O)Nc2cccc(-c3nc4cc(Cl)ccc4o3)c2)cc1	57%	–	–
O=C(Cc1cccc(Br)c1)Nc1cccc(-c2nc3ccccc3o2)c1	70.5%	25.4 nM	–
O=C(Cc1ccc2c(c1)OCO2)Nc1cccc(-c2nc3ccccc3o2)c1	63.3%	–	–
CCCCOc1ccc(CC(=O)Nc2cccc(-c3nc4cc(Cl)ccc4o3)c2)cc1	68%	–	–
O=C(Cc1ccccc1Br)Nc1cccc(-c2nc3ccccc3o2)c1	68.6%	–	–
O=C(Cc1ccc(C(F)(F)F)cc1)Nc1ccc(-c2cc3ccccc3o2)cc1	57%	–	–
O=C(Cc1cccc(OC(F)(F)F)c1)Nc1cccc(-c2nc3ccccc3o2)c1	80%	16.2 nM	–
Cc1ccc(CC(=O)Nc2cccc(-c3nc4cc(C)ccc4o3)c2)cc1	72.7%	18.5 nM	–
CCCCOc1ccc(CC(=O)Nc2ccc(-c3cc4ccccc4o3)cc2)cc1	61%	–	–
O=C(Cc1ccc(OC(F)(F)F)cc1)Nc1cccc(-c2nc3ccccc3o2)c1	91%	4.8 nM	–
O=C(Cc1ccc2c(c1)OCO2)Nc1ccc(-c2cc3ccccc3o2)cc1	47%	–	–
Cc1ccc(CC(=O)Nc2ccc(-c3cc4ccccc4o3)cc2)cc1	72%	42.4 nM	–
O=C(CC1CCOCC1)Nc1ccc(-c2cc3ccccc3o2)cc1	–	–	inhibition [1]: 36%
O=C(Cc1ccc(Cl)cc1)Nc1ccc(-c2cc3ccccc3o2)cc1	51%	–	–
